The results in this text go back to patent publication US11149011B2, “Compounds and methods for IDO and TDO modulation, and indications therefor” (Plexxikon Inc., priority 2018, dated 2021).

Each structure is given as a SMILES string.

Test [1] addresses T1, IDO1-expressing HEK293 cell clones (Homo sapiens, UniProt P14902).
T1 construct: expressed in transfected cells; host or cells: HEK293
Description: Cell based kynurenine assay, IDO1-expressing HEK293 cell clones. The conditions noted are these: HEK293 cells, 24 hours of incubation, geometric mean; read-out: HEK293 IDO1 Kynurenine GMean IC50 (μM) (Cellular Assay). The gist of the method: (§1)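 HEK293 clones stably transfected with CMV-driven human IDO1 or human TDO were seeded at 2.5×10^4 cells/well and treated with serial compound dilutions for 24 hours. Supernatant kynurenine was measured. % inhibition versus DMSO-cell and media-only controls was fitted by nonlinear regression to give IC50.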

Test [2] addresses T2, TDO (Homo sapiens, UniProt P48775).
T2 construct: His tag (N); made in house; host or cells: E. coli
Briefly: TDO enzymatic assay. The settings on record: geometric mean; read-out: TDO GMean: IC50 (μM) (Biochemical Assay). The gist of the method: (§2)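 N-His human enzymes from E. coli in 50 mM sodium phosphate pH 6.5 with ascorbate, catalase, Tween 20. IDO: 6 nM enzyme, 10 μM L-Trp, 5 μM methylene blue, 20 min RT; TDO: 1 nM enzyme, 350 μM L-Trp, 0.4 μM methylene blue, 70 min RT. TCA stop, kynurenine measured; IC50 by nonlinear regression.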

Test [3] concerns the target T3, IDO1 (Homo sapiens, UniProt P14902).
T3 construct: His tag (N); made in house; host or cells: E. coli
Description: IDO enzymatic assay. Type of test: biochemical. The settings on record: geometric mean; read-out: IDO1 GMean: IC50 (μM) (Biochemical Assay). The gist of the method: as §2

Test [4] addresses T4, TDO-expressing HEK293 cell clones (Homo sapiens, UniProt P48775).
T4 construct: expressed in transfected cells; host or cells: HEK293
Description: Cell based kynurenine assay, TDO-expressing HEK293 cell clones. The conditions noted are these: HEK293 cells, 24 hours of incubation, geometric mean; read-out: HEK293 TDO Kynurenine GMean IC50 (μM) (Cellular Assay). In short, it runs like this: as §1

T4 sequence (P48775 whole entry): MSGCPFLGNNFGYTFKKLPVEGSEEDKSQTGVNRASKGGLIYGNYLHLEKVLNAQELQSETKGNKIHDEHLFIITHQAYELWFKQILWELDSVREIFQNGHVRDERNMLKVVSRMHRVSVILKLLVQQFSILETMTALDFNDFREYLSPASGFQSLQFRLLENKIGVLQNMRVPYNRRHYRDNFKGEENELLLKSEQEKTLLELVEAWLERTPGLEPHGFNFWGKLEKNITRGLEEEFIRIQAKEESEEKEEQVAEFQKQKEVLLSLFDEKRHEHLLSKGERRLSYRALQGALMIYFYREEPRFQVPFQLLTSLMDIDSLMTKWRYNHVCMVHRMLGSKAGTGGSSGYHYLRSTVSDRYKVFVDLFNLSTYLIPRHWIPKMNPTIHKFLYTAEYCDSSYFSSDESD
T2 sequence (P48775 whole entry): as above
T1 sequence (P14902 whole entry): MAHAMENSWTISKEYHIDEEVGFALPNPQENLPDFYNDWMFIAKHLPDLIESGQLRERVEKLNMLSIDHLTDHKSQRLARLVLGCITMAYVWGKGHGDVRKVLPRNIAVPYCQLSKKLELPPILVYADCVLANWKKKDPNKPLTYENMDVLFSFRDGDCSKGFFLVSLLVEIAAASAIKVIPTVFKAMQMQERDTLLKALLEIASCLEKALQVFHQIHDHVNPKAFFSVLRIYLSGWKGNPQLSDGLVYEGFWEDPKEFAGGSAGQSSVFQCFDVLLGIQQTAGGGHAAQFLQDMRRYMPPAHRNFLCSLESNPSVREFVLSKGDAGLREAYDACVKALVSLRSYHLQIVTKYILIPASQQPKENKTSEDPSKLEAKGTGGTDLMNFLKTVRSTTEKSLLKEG
T3 sequence (P14902 whole entry): as above

With `CCCNC(=O)N1CCC(C(C)(C)C(O)c2cc(Cl)cc3[nH]ncc23)CC1` (stereo not drawn) [Compound P-0077, 4-(1-(6-chloro-1H-indazol-4-yl)-1-hydroxy-2-methylpropan-2-yl)-N-propylpiperidine-1-carboxamide], the IC50 in test [1], in test [2], in test [3] and in test [4] was 0.0001 to 10 µM throughout.

In the case of `CC(C)(C1CCN(C(=O)c2ccc(C(F)(F)F)nc2)CC1)C(O)c1cc(Cl)cc2[nH]ncc12` (stereo not drawn) [Compound P-0053, (4-(1-(6-chloro-1H-indazol-4-yl)-1-hydroxy-2-methylpropan-2-yl)piperidin-1-yl)(6-(trifluoromethyl)pyridin-3-yl)methanone], the IC50 in test [1], in test [2], in test [3] and in test [4] was 0.0001 to 10 µM throughout.

Turning to `CCCS(=O)(=O)N1CCC(C(C)(C)C(O)c2cc(Cl)cc3[nH]ncc23)CC1` (stereo not drawn) [Compound P-0071], the half-maximal inhibitory concentration (IC50) in test [1], in test [2], in test [3] and in test [4] was 0.0001 to 10 µM throughout.

In the case of `C[C@@H](O)C(=O)N1CCC(C(C)(C)[C@H](O)c2cc(Cl)cc3cn[nH]c23)CC1` [Compound P-0131, (R)-1-(4-((S)-1-(5-chloro-1H-indazol-7-yl)-1-hydroxy-2-methylpropan-2-yl)piperidin-1-yl)-2-hydroxypropan-1-one], the half-inhibitory concentration (IC50) in test [1], in test [2], in test [3] and in test [4] was 0.0001 to 10 µM throughout.

As to `CC(C)(C1CCN(C(=O)NCCF)CC1)C(O)c1cc(Cl)cc2[nH]ncc12` (stereo not drawn) [Compound P-0110, 4-(1-(6-chloro-1H-indazol-4-yl)-1-hydroxy-2-methylpropan-2-yl)-N-(2-fluoroethyl)piperidine-1-carboxamide], the IC50 – broadly, the concentration at which inhibition is half-maximal – was > 10 µM in test [1], 0.0001 to 10 µM in test [2], 0.0001 to 10 µM in test [3] and 0.0001 to 10 µM in test [4].

For the compound `CC(C)(C1CCN(C(=O)Nc2ccc(C#N)nc2)CC1)[C@H](O)c1cc(Cl)cc2cn[nH]c12` [Compound P-0120, (S)-4-(1-(5-chloro-1H-indazol-7-yl)-1-hydroxy-2-methylpropan-2-yl)-N-(6-cyanopyridin-3-yl)piperidine-1-carboxamide], the IC50 in test [1], in test [2], in test [3] and in test [4] was 0.0001 to 10 µM in each case.

As to `CC(C)(C1CCN(C(=O)C2(O)CC2)CC1)[C@H](O)c1cc(Cl)cc2cn[nH]c12` [Compound P-0133, (S)-(4-(1-(5-chloro-1H-indazol-7-yl)-1-hydroxy-2-methylpropan-2-yl)piperidin-1-yl)(1-hydroxycyclopropyl)methanone], the IC50 in test [1], in test [2], in test [3] and in test [4] was 0.0001 to 10 µM each time.

As for `CON(C)C(=O)N1CCC(C(C)(C)[C@H](O)c2cc(Cl)cc3cn[nH]c23)CC1` [Compound P-0130, (S)-4-(1-(5-chloro-1H-indazol-7-yl)-1-hydroxy-2-methylpropan-2-yl)-N-methoxy-N-methylpiperidine-1-carboxamide], the IC50 in test [1], in test [2], in test [3] and in test [4] was 0.0001 to 10 µM each time.

`CC(C)(C1CCN(C(=O)NCCC#N)CC1)[C@H](O)c1cc(Cl)cc2cn[nH]c12` [Compound P-0030, (S)-4-(1-(5-chloro-1H-indazol-7-yl)-1-hydroxy-2-methylpropan-2-yl)-N-(2-cyanoethyl)piperidine-1-carboxamide]: the IC50 in test [1], in test [2], in test [3] and in test [4] was 0.0001 to 10 µM each time.

As for `CC(C)(C)OC(=O)N1CCC(C(C)(C)[C@H](O)c2cc(Cl)cc3[nH]ncc23)CC1` [Compound P-0142, tert-butyl (S)-4-(1-(6-chloro-1H-indazol-4-yl)-1-hydroxy-2-methylpropan-2-yl)piperidine-1-carboxylate], the IC50 in test [1] is > 10 µM; in test [2], 0.0001 to 10 µM; in test [3] it was 0.0001 to 10 µM; in test [4] it was 0.0001 to 10 µM.

In the case of `C[C@H](O)C(=O)N1CCC(C(C)(C)[C@H](O)c2cc(Cl)cc3cn[nH]c23)CC1` [Compound P-0124, (S)-1-(4-((S)-1-(5-chloro-1H-indazol-7-yl)-1-hydroxy-2-methylpropan-2-yl)piperidin-1-yl)-2-hydroxypropan-1-one], the IC50 in test [1], in test [2], in test [3] and in test [4] was 0.0001 to 10 µM throughout.

Turning to `CCCC(=O)N1CCC(C(C)(C)C(O)c2cc(Cl)cc3[nH]ncc23)CC1` (stereo not drawn) [Compound P-0045, 1-(4-(1-(6-chloro-1H-indazol-4-yl)-1-hydroxy-2-methylpropan-2-yl)piperidin-1-yl)butan-1-one], the IC50 in test [1], in test [2], in test [3] and in test [4] was 0.0001 to 10 µM in each case.

For the compound `CC(C)NC(=O)N1CCC(C(C)(C)C(O)c2cc(Cl)cc3[nH]ncc23)CC1` (stereo not drawn) [Compound P-0074, 4-(1-(6-chloro-1H-indazol-4-yl)-1-hydroxy-2-methylpropan-2-yl)-N-isopropylpiperidine-1-carboxamide], the IC50 in test [1], in test [2], in test [3] and in test [4] was 0.0001 to 10 µM throughout.

As to `CC(C)(C1CCN(C(=O)NCc2ncccn2)CC1)[C@H](O)c1cc(Cl)cc2cn[nH]c12` [Compound P-0027, (S)-4-(1-(5-chloro-1H-indazol-7-yl)-1-hydroxy-2-methylpropan-2-yl)-N-(pyrimidin-2-ylmethyl)piperidine-1-carboxamide], the IC50 in test [1], in test [2], in test [3] and in test [4] was 0.0001 to 10 µM each time.

Regarding `CC(C)(C1CCN(C(=O)NC2(C#N)CC2)CC1)C(O)c1cc(Cl)cc2[nH]ncc12` (stereo not drawn) [Compound P-0119, 4-(1-(6-chloro-1H-indazol-4-yl)-1-hydroxy-2-methylpropan-2-yl)-N-(1-cyanocyclopropyl)piperidine-1-carboxamide], the IC50 is > 10 µM in test [1], 0.0001 to 10 µM in test [2], 0.0001 to 10 µM in test [3] and 0.0001 to 10 µM in test [4].

Regarding `CC(C)(C1CCN(C(=O)N2CCS(=O)(=O)CC2)CC1)[C@H](O)c1cc(Cl)cc2cn[nH]c12` [Compound P-0022, (S)-(4-(1-(5-chloro-1H-indazol-7-yl)-1-hydroxy-2-methylpropan-2-yl)piperidin-1-yl)(1,1-dioxidothiomorpholino)methanone], the IC50 in test [1], in test [2], in test [3] and in test [4] was 0.0001 to 10 µM throughout.

In the case of `CONC(=O)N1CCC(C(C)(C)C(O)c2cc(Cl)cc3[nH]ncc23)CC1` (stereo not drawn) [Compound P-0093, 4-(1-(6-chloro-1H-indazol-4-yl)-1-hydroxy-2-methylpropan-2-yl)-N-methoxypiperidine-1-carboxamide], the IC50 in test [1] is > 10 µM; in test [2], 0.0001 to 10 µM; in test [3], 0.0001 to 10 µM; in test [4], 0.0001 to 10 µM.

For the compound `CS(=O)(=O)N1CCC2(CC1)CC(O)(c1c(F)c(Cl)cc3cn[nH]c13)C2` [Compound P-0136, 2-(5-chloro-6-fluoro-1H-indazol-7-yl)-7-(methylsulfonyl)-7-azaspiro[3.5]nonan-2-ol], the IC50 in test [1], in test [2], in test [3] and in test [4] was 0.0001 to 10 µM each time.

In the case of `CCONC(=O)N1CCC(C(C)(C)[C@H](O)c2cc(Cl)cc3cn[nH]c23)CC1` [Compound P-0121, (S)-4-(1-(5-chloro-1H-indazol-7-yl)-1-hydroxy-2-methylpropan-2-yl)-N-ethoxypiperidine-1-carboxamide], the IC50 in test [1], in test [2], in test [3] and in test [4] was 0.0001 to 10 µM throughout.

Turning to `CC(C)(C1CCN(C(=O)N[C@H]2CCC[C@H]2O)CC1)[C@H](O)c1cc(Cl)cc2cn[nH]c12` [Compound P-0025, 4-((S)-1-(5-chloro-1H-indazol-7-yl)-1-hydroxy-2-methylpropan-2-yl)-N-((1S,2R)-2-hydroxycyclopentyl)piperidine-1-carboxamide], the concentration for half-maximal inhibition (IC50) in test [1], in test [2], in test [3] and in test [4] was 0.0001 to 10 µM each time.

As for `COCCCNC(=O)N1CCC(C(F)(F)C(=O)c2c(F)c(Cl)cc3cn[nH]c23)CC1` [Compound P-0037, 4-(2-(5-chloro-6-fluoro-1H-indazol-7-yl)-1,1-difluoro-2-oxoethyl)-N-(3-methoxypropyl)piperidine-1-carboxamide], the half-inhibitory concentration (IC50) in test [1], in test [2], in test [3] and in test [4] was 0.0001 to 10 µM in each case.
